Five compounds from PMC7028757 (2020) can be followed below.

Experiment [1] concerns Oxytricha Nova G-quadruplex d(GGGGTTTTGGGG) (DNA, G4) GGGGTTTTGGGG
The experiment in a line: FID. The settings on record: 100 mM NaCl; 10 mM sodium cacodylate, 0.5 mM EDTA, pH 7.0, 20°C; thiazole orange 0.50 μM displaced.

Experiment [2] has as its system d(AGGGGTTTTCCCCT) hairpin duplex (DNA, hairpin) AGGGGTTTTCCCCT
The experiment in a line: FID. The settings on record: 100 mM NaCl; 10 mM sodium cacodylate, 0.5 mM EDTA, pH 7.0, 20°C; thiazole orange 0.50 μM displaced.

Experiment [3] deals with Oxytricha Nova G-quadruplex d(GGGGTTTTGGGG) (DNA, G4) GGGGTTTTGGGG
The experiment in a line: UV melting, 260 nm. Conditions: 100 mM NaCl; 10 mM sodium cacodylate, 0.5 mM EDTA, pH 7.0; 5 μM quadruplex, ligand 1:1.

Experiment [4] shares this test system. The experiment can be described thus: fluorescence titration. Conditions: 100 mM NaCl; 10 mM sodium cacodylate, 0.5 mM EDTA, pH 7.0, 20°C.

As for `CN(C)CCN1C(=O)c2ccc3c4c(ccc(c24)C1=O)C(=O)N(CCCNC(=O)NCCSC[C@H]1O[C@@H](O[C@@H]2[C@@H](O)[C@H](N)C[C@H](N)[C@H]2O[C@H]2O[C@H](CN)[C@@H](O)[C@H](O)[C@H]2N)[C@H](O)[C@@H]1O[C@H]1O[C@@H](CN)[C@@H](O)[C@H](O)[C@H]1N)C3=O`, the figures for the DC50 in experiment [1] and in experiment [2] were 7.89 µM and 0.83 µM, respectively. The shift in melting temperature (ΔTm) (in general, the change in melting temperature against a reference sample) in experiment [3] was found to be 0.6 °C.

With `CN1C(=Cc2cc[n+](C)c3ccccc23)Sc2ccccc21`, the binding result in experiment [4] is listed as “yes”.

Take `NC[C@@H]1O[C@H](O[C@H]2[C@@H](O)[C@H](O[C@@H]3[C@@H](O)[C@H](N)C[C@H](N)[C@H]3O[C@H]3O[C@H](CN)[C@@H](O)[C@H](O)[C@H]3N)O[C@@H]2CO)[C@H](N)[C@@H](O)[C@@H]1O`: the DC50 in experiment [1] was 76.02 µM; in experiment [2], 53.44 µM. Besides, in experiment [3], the ΔTm worked out at 0.0 °C.

With `NC[C@@H]1O[C@H](O[C@H]2[C@@H](O)[C@H](O[C@@H]3[C@@H](O)[C@H](N)C[C@H](N)[C@H]3O[C@H]3O[C@H](CN)[C@@H](O)[C@H](O)[C@H]3N)O[C@@H]2CSCCNC(=O)CCCc2ccc3ccc4cccc5ccc2c3c45)[C@H](N)[C@@H](O)[C@@H]1O`, the values for the DC50 in experiment [1] and in experiment [2] were 4.73 µM and 2.61 µM, respectively. Also, the ΔTm in experiment [3] is 1.9 °C.

On to `NC[C@@H]1O[C@H](O[C@H]2[C@@H](O)[C@H](O[C@@H]3[C@@H](O)[C@H](N)C[C@H](N)[C@H]3O[C@H]3O[C@H](CN)[C@@H](O)[C@H](O)[C@H]3N)O[C@@H]2CSCCNC(=O)NCCCNC(=O)c2ccc3c(c2)C(=O)c2ccccc2C3=O)[C@H](N)[C@@H](O)[C@@H]1O`, for which the DC50 in experiment [1] is 0.30 µM; in experiment [2], 0.75 µM. In addition, the ΔTm in experiment [3] is 0.5 °C.
